According to patent US11325929B2 (VivaVisionShanghaiLtd, priority 2017, dated 2022):
Like-named read-outs stand apart in the source and are kept apart here.

Test system: human T lymphocyte strain Jurkat (ATCC TIB-152) adhesion to ICAM-1
Test: T-cell adhesion assay (Jurkat cells on ICAM-1 coated plates)
Assay type: cell-based
Conditions: BCECF-AM labelled Jurkat cells, ICAM-1 coated plate, fluorescence readout, read-out: EC50 of cell adhesion and inhibition
Procedure: Cell Adhesion Inhibition Experiments:
T-cell adhesion assay was performed using human T lymphocyte strain Jurkat (ATCC TIB-152): goat Anti-Human IgG (Fc specific) (Sigma 18885) was diluted to 10 μg/ml in PBS, incubated 100 μL per well/96 well plate at 4° C. for 12 hours. Liquid in the well plate was poured off, blocked with 200 μL of 1% BSA at 37° C. for 90 minutes, and washed three times with PBS. 50 μL of 1 μg/mL ICAM-1 (containing 0.1% BSA, 0.01% Tween 20) was added to each well and incubated at 37° C. for 3 hours. The plate was washed 3 times with assay buffer (20 mM HEPES pH 7.6, 140 mM NaCl, 1 mM MgCl2, 1 mM MnCl2, 0.2% glucose).
The Jurkat […] was centrifuged at 100-G, and cells were resuspended in an assay buffer (20 mM HEPES pH 7.6, 140 mM NaCl, 1 mM MgCl2, 1 mM MnCl2, 0.2% glucose) at 37° C.
2 μl of 1 mM of BCECF-AM per mL of the cell suspension was added. Incubated at 37° C. for 30 minutes, stirred up every 10 minutes during the incubation. After the incubation, the cells were washed with assay buffer at 37° C. The cells were suspended to a concentration of 6×10^6/mL.
The inhibitor was diluted to a final concentration of 2× in assay buffer, and 50 μL of the compound solution and […] of Jurkat cells were mixed at room temperature, and incubated at 37° C. for 30 minutes. 100 μL/well of cells and inhibitors were added to the plate and incubated for 1 hour at room temperature. The total fluorescence was measured by a fluorometer: ex: 485; em: 530; cutoff: 530 to measure the total fluorescence. The plate was washed once with the assay buffer and the fluorescence was measured with a fluorometer: ex: 485; em: 530; cutoff. The results are plotted as inhibition-concentration plots and EC50 is calculated using standard methods.

Row | Compound | EC50 (Homo sapiens) | EC50
1 | CS(=O)(=O)c1cccc(C[C@H](NC(=O)c2c(Cl)cc(CCP(=O)(c3cccc(O)c3)c3cccc(O)c3)cc2Cl)C(=O)O)c1 [Example 53, (S,E)-2-(4-(2-(bis(3-hydroxyphenyl)phosphonyl)ethyl)-2,6-dichlorobenzamido)-3-(3-(methylsulfonyl)phenyl)propionic Acid] | 22 nM | –
2 | COc1cccc(P(=O)(C#Cc2cc(Cl)c(C(=O)N[C@@H](Cc3cccc(S(C)(=O)=O)c3)C(=O)O)c(Cl)c2)OC)c1 (stereo partly shown) [Example 12] | 29 nM | –
3 | CP(=O)(CCc1cc(Cl)c(C(=O)N[C@@H](CN/C(=N\C#N)N(CCO)CCO)C(=O)O)c(Cl)c1)c1cccc(O)c1 (stereo partly shown) [Example 46, (2s)-3-(2-cyano-3,3-bis(2-hydroxyethyl)guanidino)-2-(2,6-dichloro-4-(2-(methyl(3-hydroxyphenyl)phosphoryl)ethyl)benzamido)propionic Acid] | > 1000 nM | –
4 | CP(=O)(CCc1cc(Cl)c(C(=O)N[C@@H](CC2CCN(S(C)(=O)=O)C2)C(=O)O)c(Cl)c1)c1cccc(O)c1 (stereo partly shown) [Example 42] | 150 nM | –
5 | CCOP(=O)(CCc1cc(Cl)c(C(=O)N[C@@H](Cc2cccc(S(C)(=O)=O)c2)C(=O)O)c(Cl)c1)c1cccc(O)c1 (stereo partly shown) [Example 6, (2s)-2-(2,6-dichloro-4-(2-(ethoxy(m-hydroxyphenyl)phosphoryl)ethyl)benzamido)-3-(3-(methylsulfonyl)phenyl)propionic Acid] | 17 nM | –
6 | CS(=O)(=O)c1cccc(C[C@H](NC(=O)c2c(Cl)cc(CCP(=O)(O)c3ccccc3)cc2Cl)C(=O)O)c1 [Example 1, (2s)-2-(2,6-dichloro-4-(2-(hydroxy(phenyl)phosphoryl)ethyl)benzamido)-3-(3-(methylsulfonyl)phenyl)propionic Acid] | 30 nM | –
7 | CP(=O)(CCc1cc(Cl)c(C(=O)N[C@@H](Cc2cccc(S(C)(=O)=O)c2)C(=O)O)c(Cl)c1)c1ccc2ccoc2c1 (stereo partly shown) [Example 25] | 63 nM | –
8 | CP(=O)(CCc1cc(Cl)c(C(=O)N[C@@H](CN/C(=N\C#N)N2CC[C@@H](O)C2)C(=O)O)c(Cl)c1)c1cccc(O)c1 (stereo partly drawn) [Example 19, (2s)-3-((R)—N′-cyano-3-hydroxytetrahydropyrrol-1-formamidino)-2-(2,6-dichloro-4-(2-(methyl(3-hydroxyphenyl)phosphoryl)ethyl)benzamido)propionic Acid] | 230 nM | –
9 | CS(=O)(=O)c1cccc(C[C@H](NC(=O)c2c(Cl)cc(/C=C/P(=O)(c3cccc(O)c3)c3cccc(O)c3)cc2Cl)C(=O)O)c1 [Example 52, (S,E)-2-(4-(2-(bis(3-hydroxyphenyl)phosphonyl)vinyl)-2,6-dichlorobenzamido)-3-(3-(methylsulfonyl)phenyl)propionic Acid] | 74 nM | –
10 | 2-(2,6-dichloro-4-(2-(methyl(3-hydroxyphenyl)phosphoryl)ethyl)benzylamino)-3-(3,5-(dimethylsulfonyl)phenyl)propionic Acid [Example 36] | – | 30 nM
11 | CCCCP(=O)(CCc1cc(Cl)c(C(=O)N[C@@H](Cc2cccc(S(C)(=O)=O)c2)C(=O)O)c(Cl)c1)c1cccc(O)c1 (stereo partly shown) [Example 23] | 61 nM | –
12 | CP(=O)(CCc1cc(Cl)c(C(=O)N[C@@H](Cc2cccc(S(C)(=O)=O)c2)C(=O)O)c(Cl)c1)c1cc2ccccc2o1 (stereo partly shown) [Example 26] | 23 nM | –
13 | CS(=O)(=O)c1cccc(C[C@H](NC(=O)c2c(Cl)cc(CCP(=O)(c3cccc(O)c3)C3CC3)cc2Cl)C(=O)O)c1 (stereo partly shown) [Example 22] | 22 nM | –
14 | CP(=O)(CCc1cc(Cl)c(C(=O)N[C@@H](CN/C(=N\C#N)N2C[C@@H](O)[C@H](O)C2)C(=O)O)c(Cl)c1)c1cccc(O)c1 (stereo partly drawn) [Example 45, (2s)-3-((trans)-N′-cyano-3,4-dihydroxypyrrolidine-1-formamidino)-2-(2,6-dichloro-4-(2-(methyl(3-hydroxyphenyl)phosphoryl)ethyl)benzamido)propionic Acid] | > 1000 nM | –
15 | CCOP(=O)(/C=C/c1cc(Cl)c(C(=O)N[C@@H](Cc2cccc(S(C)(=O)=O)c2)C(=O)O)c(Cl)c1)c1cccc(O)c1 (stereo partly drawn) [Example 32, (S,E)-2-(4-(2-(3-hydroxyphenyl)phosphonovinyl)-2,6-dichlorobenzamide)-3-(3-(methylsulfonyl)phenyl)propionic Acid] | 3.7 nM | –
16 | CP(=O)(CCc1cc(Cl)c(C(=O)N[C@@H](CNC(=O)c2cccs2)C(=O)O)c(Cl)c1)c1cccc(O)c1 (stereo partly shown) [Example 17, (2s)-2-(2,6-dichloro-4-(2-(methyl(3-hydroxyphenyl)phosphoryl)ethyl)benzamido)-3-(2-thenoylamide)propyl Acid] | 15 nM | –
17 | COc1cccc(P(=O)(O)C#Cc2cc(Cl)c(C(=O)N[C@@H](Cc3cccc(S(C)(=O)=O)c3)C(=O)O)c(Cl)c2)c1 [Example 13] | 29 nM | –
18 | COP(=O)(C#Cc1cc(Cl)c(C(=O)N[C@@H](Cc2cccc(S(C)(=O)=O)c2)C(=O)O)c(Cl)c1)c1ccccc1O (stereo partly shown) [Example 47] | 340 nM | –
19 | CP(=O)(CCc1cc(Cl)c(C(=O)N[C@@H](Cc2cccc(S(C)(=O)=O)c2)C(=O)O)c(Cl)c1)c1ccccc1 (stereo partly shown) [Example 10, (2s)-2-(2,6-dichloro-4-(2-(methyl(phenyl)phosphoryl)ethyl)benzamide)-3-(3-(methylsulfonyl)phenyl)propionic Acid] | 78 nM | –
20 | CP(=O)(CCc1cc(Cl)c(C(=O)N[C@@H](CCCCNS(C)(=O)=O)C(=O)O)c(Cl)c1)c1cccc(O)c1 (stereo partly shown) [Example 37] | > 1000 nM | –
21 | CP(=O)(CCc1cc(Cl)c(C(=O)N[C@@H](Cc2cncc(S(C)(=O)=O)c2)C(=O)O)c(Cl)c1)c1cccc(O)c1 (stereo partly shown) [Example 38] | 24 nM | –
22 | CC(C)P(=O)(CCc1cc(Cl)c(C(=O)N[C@@H](Cc2cccc(S(C)(=O)=O)c2)C(=O)O)c(Cl)c1)c1cccc(O)c1 (stereo partly shown) [Example 56] | 63 nM | –
23 | COP(=O)(C#Cc1cc(Cl)c(C(=O)N[C@@H](Cc2cccc(S(C)(=O)=O)c2)C(=O)O)c(Cl)c1)c1cccc(O)c1 (stereo partly shown) [Example 7] | 7.2 nM | –
24 | CS(=O)(=O)c1cccc(C[C@H](NC(=O)c2c(Cl)cc(C(O)CP(=O)(O)c3cccc(O)c3)cc2Cl)C(=O)O)c1 (stereo partly shown) [Example 50, (2s)-2-(2,6-dichloro-4-(1-hydroxy 2-(hydroxy(3-hydroxyphenyl)phosphoryl)ethyl)benzamido)-3-(3-(methylsulfonyl)phenyl)propionic Acid] | 16 nM | –

Now from value to compound, other results behind:

Row | EC50 (Homo sapiens) | Compound | EC50
25 | 10.8 nM | CP(=O)(CCc1cc(Cl)c(C(=O)N[C@@H](Cc2cccc(S(C)(=O)=O)c2)C(=O)O)c(Cl)c1)c1ccc(O)cc1 (stereo partly shown) [Example 33] | –
26 | 12.5 nM | CP(=O)(CCc1cc(Cl)c(C(=O)N[C@@H](CNC(=O)c2cccc(O)c2)C(=O)O)c(Cl)c1)c1cccc(O)c1 (stereo partly shown) [Example 34, (2s)-2-(2,6-dichloro-4-(2-(methyl(3-hydroxyphenyl)phosphoryl)ethyl)benzamido)-3-(3-hydroxybenzamido)propionic Acid] | –
27 | 10.8 nM | CS(=O)(=O)c1cccc(C[C@H](NC(=O)c2c(Cl)cc(C#CP(=O)(O)c3ccc4ccoc4c3)cc2Cl)C(=O)O)c1 [Example 49] | –
28 | 1.9 nM | CP(=O)(/C=C/c1cc(Cl)c(C(=O)N[C@@H](Cc2cccc(S(C)(=O)=O)c2)C(=O)O)c(Cl)c1)c1cccc(O)c1 (stereo partly shown) [Example 58] | –
29 | 5.3 nM | CS(=O)(=O)c1cccc(C[C@H](NC(=O)c2c(Cl)cc(/C=C/P(=O)(c3cccc(O)c3)C3CC3)cc2Cl)C(=O)O)c1 (stereo partly shown) [Example 57] | –
30 | 7.2 nM | C[P@](=O)(CCc1cc(Cl)c(C(=O)N[C@@H](Cc2cccc(S(C)(=O)=O)c2)C(=O)O)c(Cl)c1)c1cccc(O)c1 [Example 30] | –
31 | 13.5 nM | CP(=O)(C#Cc1cc(Cl)c(C(=O)N[C@@H](Cc2cccc(S(C)(=O)=O)c2)C(=O)O)c(Cl)c1)c1cccc(O)c1 (stereo partly shown) [Example 11] | –
32 | 7.3 nM | CCP(=O)(CCc1cc(Cl)c(C(=O)N[C@@H](Cc2cccc(S(C)(=O)=O)c2)C(=O)O)c(Cl)c1)c1cccc(O)c1 (stereo partly shown) [Example 21] | –
33 | 3.8 nM | CP(=O)(CCc1cc(Cl)c(C(=O)N[C@@H](CNC(=O)c2cc(O)cc(O)c2)C(=O)O)c(Cl)c1)c1cccc(O)c1 (stereo partly shown) [Example 35, (2s)-2-(2,6-dichloro-4-(2-(methyl(3-hydroxyphenyl)phosphoryl)ethyl)benzamido)-3-(3,5-dihydroxybenzamido)propionic Acid] | –
34 | 1.8 nM | CP(=O)(C#Cc1cc(Cl)c(C(=O)N[C@@H](Cc2cccc(S(C)(=O)=O)c2)C(=O)O)c(Cl)c1)c1ccc(O)cc1 (stereo partly shown) [Example 15] | –
35 | 8.5 nM | CP(=O)(CCc1cc(Cl)c(C(=O)N[C@@H](Cc2cccc(S(C)(=O)=O)c2)C(=O)O)c(Cl)c1)c1cccc(O)c1 (stereo partly shown) [Example 14] | –
36 | 7.2 nM | CS(=O)(=O)c1cccc(C[C@H](NC(=O)c2c(Cl)cc(C#CP(=O)(O)c3ccccc3)cc2Cl)C(=O)O)c1 [Example 16] | –
37 | 11.8 nM | CP(=O)(C#Cc1cc(Cl)c(C(=O)N[C@@H](Cc2cccc(S(C)(=O)=O)c2)C(=O)O)c(Cl)c1)c1ccccc1 (stereo partly shown) [Example 9] | –
